Laboratory results from patent EP0609437B1, “NOVEL SPHINGOGLYCOLIPID AND USE THEREOF” (KIRIN BEER KABUSHIKI KAISHA, priority 1991, dated 1993).

Columns and labels:
[1] = test system: B16 mouse melanoma cells; assay: Anti-tumor activity against B16 mouse melanoma inoculated subcutaneously; assay type: in vivo; conditions: Mus musculus, iv, 480 h; maximum tumor growth inhibition rate during the test period of 20 days; female BDF1 mice; 0.1 mg/kg intravenously on days 1, 5 and 9 after s.c. inoculation; read-out: TGIR (%)
Method: Anti-tumor activity against B16 mouse melanoma inoculated subcutaneously.
Experiment was carried out with the groups of 6 female BDF1 mice (6 weeks old) purchased from Japan SLC Inc., B16 mouse melanoma cells (1 × 10^6 cells/mouse) were inoculated subcutaneously in the rear region of mice, and the sample prepared in a concentration of 0.1 mg/kg was administered intravenously at a dose of 0.2 ml/20g/mouse after 1, 5 and 9 days from inoculation (the day of inoculation being set as 0 day). The volume of the tumor at the hypodermis of the rear region [(longer diameter × shorter diameter × height)/2] was measured on 8, 12, 16 and 20 days after inoculation, and the tumor growth inhibition rate (TGIR) of each sample was determined. TGIR was calculated from the following equation: TGIR (%) = (1 - T/C) × 100 [formula] wherein C represents a tumor volume of the control group and T represents a tumor volume of the group to which the sample was administered.
In this connection, respective test runs were divided by broken lines.

[2] = test system: spleen cells of C57BL/6 mouse and pancreatic cells of BALB/c mouse; assay: Lymphocyte mixed culture reaction (mouse MLR), uptake of 3H-TdR; assay type: cell-based; conditions: Mus musculus, Lymphocyte, 50 h, cultured for 42 hours, then 8 hours with 3H-TdR, read-out: Uptake of ^3H-TdR (% of control); for activity at 1 µg/mL: sample concentration 10^0 µg/ml; for activity at 0.1 µg/mL: sample concentration 10^-1 µg/ml; for activity at 0.01 µg/mL: sample concentration 10^-2 µg/ml
Method: Experiment was carried out with the spleen cells of C57BL/6 mouse which had been treated with mitomycin C (50 µg/ml, 30 min) as the stimulator and with the […] cells of BALB/c mouse as the responder. These […] cells were suspended to a concentration of 2 × 10^6 cells/ml with a culture medium of 10% FCS RPMI 1640, respectively. These cells (50 µl/well) and a sample (10 µl/well) were plated in a 96 well round-bottomed plate and cultured for 42 hours* under the condition of 37°C and 5% CO2. ^3H-thymidine (^3H-TdR) was added in a dose of 0.5 µCi/well. After 8 hours, the cells were harvested and subjected to the measurement of the uptake of ^3H-TdR by a liquid scintillation counter.
*The samples of the compounds 32, 33 and 34 were cultured for 4 days.

CCCCCCCCCCCCCCCCCCCCCCCC(=O)N[C@@H](CO[C@H]1O[C@H](CO)[C@H](O)[C@H](O)[C@H]1O)[C@H](O)CCCCCCCCCCCCCCC [Compound 1, (2S,3R)-1-(α-D-galactopyranosyloxy)-2-tetracosanoylamino-3-octadecanol]
inhibition in vivo at 0.1 mg/kg [1]: 91.4%
activity at 1 µg/mL [2]: 359%
activity at 0.1 µg/mL [2]: 151%
activity at 0.01 µg/mL [2]: 136%

CCCCCCCCCCCCCCCCCCCCCC(=O)N[C@@H](CO[C@H]1O[C@H](CO)[C@H](O)[C@H](O)[C@H]1O)[C@H](O)CCCCCCCCCCCCCCC [Compound 2, (2S,3R)-2-docosanoylamino-1-(α-D-galactopyranosyloxy)-3-octadecanol]
inhibition in vivo at 0.1 mg/kg [1]: 53.1%
activity at 1 µg/mL [2]: 329%
activity at 0.1 µg/mL [2]: 115%
activity at 0.01 µg/mL [2]: 103%

CCCCCCCCCCCCCCCCCCCC(=O)N[C@@H](CO[C@H]1O[C@H](CO)[C@H](O)[C@H](O)[C@H]1O)[C@H](O)CCCCCCCCCCCCCCC [Compound 3, (2S,3R)-1-(α-D-galactopyranosyloxy)-2-icosanoylamino-3-octadecanol]
inhibition in vivo at 0.1 mg/kg [1]: 56.9%
activity at 1 µg/mL [2]: 254%
activity at 0.1 µg/mL [2]: 117%
activity at 0.01 µg/mL [2]: 110%

CCCCCCCCCCCCCCCCCC(=O)N[C@@H](CO[C@H]1O[C@H](CO)[C@H](O)[C@H](O)[C@H]1O)[C@H](O)CCCCCCCCCCCCCCC [Compound 4, (2S,3R)-1-(α-D-galactopyranosyloxy)-2-octadecanoylamino-3-octadecanol]
inhibition in vivo at 0.1 mg/kg [1]: 78.1%
activity at 1 µg/mL [2]: 269%
activity at 0.1 µg/mL [2]: 158%
activity at 0.01 µg/mL [2]: 134%

CCCCCCCCCCCCCCC[C@@H](O)[C@H](CO[C@H]1O[C@H](CO)[C@H](O)[C@H](O)[C@H]1O)NC(=O)CCCCCCCCC [Compound 6, (2S,3R)-2-decanoylamino-1-(α-D-galactopyranosyloxy)-3-octadecanol]
inhibition in vivo at 0.1 mg/kg [1]: 73.7%
activity at 1 µg/mL [2]: 498%
activity at 0.1 µg/mL [2]: 190%
activity at 0.01 µg/mL [2]: 187%

CCCCCCCCCCCCCCC[C@@H](O)[C@H](CO[C@H]1O[C@H](CO)[C@H](O)[C@H](O)[C@H]1O)NC(=O)CCCCCCC [Compound 7, (2S,3R)-1-(α-D-galactopyranosyloxy)-2-octanoylamino-3-octadecanol]
inhibition in vivo at 0.1 mg/kg [1]: 18.5%
activity at 1 µg/mL [2]: 853%
activity at 0.1 µg/mL [2]: 576%
activity at 0.01 µg/mL [2]: 207%

CCCCCCCCCCCCCCC[C@@H](O)[C@H](CO[C@H]1O[C@H](CO)[C@H](O)[C@H](O)[C@H]1O)NC(C)=O [Compound 8, (2S,3R)-2-acetamino-1-(α-D-galactopyranosyloxy)-3-octadecanol]
inhibition in vivo at 0.1 mg/kg [1]: 22.1%
activity at 1 µg/mL [2]: 297%
activity at 0.1 µg/mL [2]: 189%
activity at 0.01 µg/mL [2]: 96%

CCCCCCCCCCCCCCCCCCCCCCCC(=O)N[C@@H](CO[C@H]1O[C@H](CO)[C@H](O)[C@H](O)[C@H]1O)[C@H](O)CCCCCCCCCCC [Compound 9, (2S,3R)-1-(α-D-galactopyranosyloxy)-2-tetracosanoylamino-3-tetradecanol]
inhibition in vivo at 0.1 mg/kg [1]: 71.5%
activity at 1 µg/mL [2]: 460%
activity at 0.1 µg/mL [2]: 193%
activity at 0.01 µg/mL [2]: 176%

CCCCCCCCCCCCCC(=O)N[C@@H](CO[C@H]1O[C@H](CO)[C@H](O)[C@H](O)[C@H]1O)[C@H](O)CCCCCCCCCCCCC [Compound 10, (2S,3R)-1-(α-D-galactopyranosyloxy)-2-tetradecanoylamino-3-hexadecanol]
inhibition in vivo at 0.1 mg/kg [1]: 76.5%
activity at 1 µg/mL [2]: 610%
activity at 0.1 µg/mL [2]: 381%
activity at 0.01 µg/mL [2]: 157%

CCCCCCCCCCCCCC(=O)N[C@H](CO[C@H]1O[C@H](CO)[C@H](O)[C@H](O)[C@H]1O)[C@@H](O)CCCCCCCCCCCCC [Compound 11, (2R,3S)-1-(α-D-galactopyranosyloxy)-2-tetradecanoylamino-3-hexadecanol]
inhibition in vivo at 0.1 mg/kg [1]: 55.9%
activity at 1 µg/mL [2]: 128%
activity at 0.1 µg/mL [2]: 105%
activity at 0.01 µg/mL [2]: 95%

CCCCCCCCCCCCCC(=O)N[C@@H](CO[C@H]1O[C@H](CO)[C@H](O)[C@H](O)[C@H]1O)[C@@H](O)CCCCCCCCCCCCC [Compound 12, (2S,3S)-1-(α-D-galactopyranosyloxy)-2-tetradecanoylamino-3-hexadecanol]
inhibition in vivo at 0.1 mg/kg [1]: 41.8%
activity at 1 µg/mL [2]: 123%
activity at 0.1 µg/mL [2]: 99%
activity at 0.01 µg/mL [2]: 104%

CCCCCCCCCCCCCC(=O)N[C@H](CO[C@H]1O[C@H](CO)[C@H](O)[C@H](O)[C@H]1O)[C@H](O)CCCCCCCCCCCCC [Compound 13, (2R,3R)-1-(α-D-galactopyranosyloxy)-2-tetradecanoylamino-3-hexadecanol]
inhibition in vivo at 0.1 mg/kg [1]: 28.2%
activity at 1 µg/mL [2]: 139%
activity at 0.1 µg/mL [2]: 106%
activity at 0.01 µg/mL [2]: 107%

CCCCCCCCCCCCCCCCCCCCCC[C@@H](O)C(=O)N[C@@H](CO[C@H]1O[C@H](CO)[C@H](O)[C@H](O)[C@H]1O)[C@H](O)CCCCCCCCCCCCCCC [Compound 14, (2S,3R)-1-(α-D-galactopyranosyloxy)-2-[(R)-2-hydroxytetracosanoylamino]-3-octadecanol]
inhibition in vivo at 0.1 mg/kg [1]: 84%
activity at 1 µg/mL [2]: 289%
activity at 0.1 µg/mL [2]: 197%
activity at 0.01 µg/mL [2]: 139%

CCCCCCCCCCCCC/C=C/[C@@H](O)[C@H](CO[C@H]1O[C@H](CO)[C@H](O)[C@H](O)[C@H]1O)NC(=O)CCCCCCCCCCCCCCCCC [Compound 15, (2S,3R,4E)-1-(α-D-galactopyranosyloxy)-2-octadecanoylamino-4-octadecen-3-ol]
inhibition in vivo at 0.1 mg/kg [1]: 61.9%
activity at 1 µg/mL [2]: 360%
activity at 0.1 µg/mL [2]: 165%
activity at 0.01 µg/mL [2]: 144%

CCCCCCCCCCCCCCCCCCCCCCCC(=O)N[C@@H](CO[C@H]1O[C@H](CO)[C@H](O)[C@H](O)[C@H]1O)[C@H](O)[C@H](O)CCCCCCCCCCCCCC [Compound 16, (2S,3S,4R)-1-(α-D-galactopyranosyloxy)-2-tetracosanoylamino-3,4-octadecanediol]
inhibition in vivo at 0.1 mg/kg [1]: 65%
activity at 1 µg/mL [2]: 321%
activity at 0.1 µg/mL [2]: 176%
activity at 0.01 µg/mL [2]: 160%

CCCCCCCCCCCCCCCCCCCCCCCC(=O)N[C@@H](CO[C@H]1O[C@H](CO)[C@H](O)[C@H](O)[C@H]1O)[C@H](O)[C@H](O)CCCCCCCCCCCCC [Compound 17, (2S,3S,4R)-1-(α-D-galactopyranosyloxy)-2-tetracosanoylamino-3,4-heptadecanediol]
inhibition in vivo at 0.1 mg/kg [1]: 58%
activity at 1 µg/mL [2]: 410%
activity at 0.1 µg/mL [2]: 190%
activity at 0.01 µg/mL [2]: 143%

CCCCCCCCCCCCCCCCCCCCCCCC(=O)N[C@@H](CO[C@H]1O[C@H](CO)[C@H](O)[C@H](O)[C@H]1O)[C@H](O)[C@H](O)CCCCCCCCCCC [Compound 18, (2S,3S,4R)-1-(α-D-galactopyranosyloxy)-2-tetracosanoylamino-3,4-pentadecanediol]
inhibition in vivo at 0.1 mg/kg [1]: 66.3%
activity at 1 µg/mL [2]: 482%
activity at 0.1 µg/mL [2]: 176%
activity at 0.01 µg/mL [2]: 138%

CCCCCCCCCCCCCCCCCCCCCCCC(=O)N[C@@H](CO[C@H]1O[C@H](CO)[C@H](O)[C@H](O)[C@H]1O)[C@H](O)[C@H](O)CCCCCCC [Compound 19, (2S,3S,4R)-1-(α-D-galactopyranosyloxy)-2-tetracosanoylamino-3,4-undecanediol]
inhibition in vivo at 0.1 mg/kg [1]: 80.2%
activity at 1 µg/mL [2]: 345%
activity at 0.1 µg/mL [2]: 188%
activity at 0.01 µg/mL [2]: 144%

CCCCCCCCCCCCCCCCCCCCCCCCCC(=O)N[C@@H](CO[C@H]1O[C@H](CO)[C@H](O)[C@H](O)[C@H]1O)[C@H](O)[C@H](O)CCCCCCCCCCCCC [Compound 20, (2S,3S,4R)-1-(α-D-galactopyranosyloxy)-2-hexacosanoylamino-3,4-heptadecanediol]
inhibition in vivo at 0.1 mg/kg [1]: 73.7%
activity at 1 µg/mL [2]: 443%
activity at 0.1 µg/mL [2]: 188%
activity at 0.01 µg/mL [2]: 192%

CCCCCCCCCCCCCCCCCCCCCC[C@@H](O)C(=O)N[C@@H](CO[C@H]1O[C@H](CO)[C@H](O)[C@H](O)[C@H]1O)[C@H](O)[C@H](O)CCCCCCCCCCCCCC [Compound 21, (2S,3S,4R)-1-(α-D-galactopyranosyloxy)-2-[(R)-2-hydroxytetracosanoylamino]-3,4-octadecanediol]
inhibition in vivo at 0.1 mg/kg [1]: 57.9%
activity at 1 µg/mL [2]: 304%
activity at 0.1 µg/mL [2]: 149%
activity at 0.01 µg/mL [2]: 142%
